The source of these data is patent US20250122223A1, “HETEROCYCLIC COMPOUNDS AS UBIQUITIN SPECIFIC PROTEASE 7 INHIBITORS” (ALMAC DISCOVERY LIMITED, priority 2022, published 2025).

By IC50 is commonly meant the point on the concentration scale where inhibition reaches its midpoint.

The assay concerns the target USP7 (Homo sapiens (Human), UniProt Q93009). In words: USP7 fluorescence polarisation (FP) assay with ubiquitin-Lys-TAMRA substrate. The class given is biochemical. Particulars: biochemical inhibition. For orientation: Polarisation of emitted light reports the rotation of a fluorescent probe.
Where [1] appears, read: read-out: USP7 IC50 activity (Table 3a, classes).
[2] abbreviates: unit not given in Table 3b (Table 1 and key of Table 3a use μM), read-out: USP7 IC50 activity (Table 3b).

Molecules are shown by their SMILES. Where two headings read alike, the source gives them in different places.

Sequence of USP7 (Q93009 whole entry): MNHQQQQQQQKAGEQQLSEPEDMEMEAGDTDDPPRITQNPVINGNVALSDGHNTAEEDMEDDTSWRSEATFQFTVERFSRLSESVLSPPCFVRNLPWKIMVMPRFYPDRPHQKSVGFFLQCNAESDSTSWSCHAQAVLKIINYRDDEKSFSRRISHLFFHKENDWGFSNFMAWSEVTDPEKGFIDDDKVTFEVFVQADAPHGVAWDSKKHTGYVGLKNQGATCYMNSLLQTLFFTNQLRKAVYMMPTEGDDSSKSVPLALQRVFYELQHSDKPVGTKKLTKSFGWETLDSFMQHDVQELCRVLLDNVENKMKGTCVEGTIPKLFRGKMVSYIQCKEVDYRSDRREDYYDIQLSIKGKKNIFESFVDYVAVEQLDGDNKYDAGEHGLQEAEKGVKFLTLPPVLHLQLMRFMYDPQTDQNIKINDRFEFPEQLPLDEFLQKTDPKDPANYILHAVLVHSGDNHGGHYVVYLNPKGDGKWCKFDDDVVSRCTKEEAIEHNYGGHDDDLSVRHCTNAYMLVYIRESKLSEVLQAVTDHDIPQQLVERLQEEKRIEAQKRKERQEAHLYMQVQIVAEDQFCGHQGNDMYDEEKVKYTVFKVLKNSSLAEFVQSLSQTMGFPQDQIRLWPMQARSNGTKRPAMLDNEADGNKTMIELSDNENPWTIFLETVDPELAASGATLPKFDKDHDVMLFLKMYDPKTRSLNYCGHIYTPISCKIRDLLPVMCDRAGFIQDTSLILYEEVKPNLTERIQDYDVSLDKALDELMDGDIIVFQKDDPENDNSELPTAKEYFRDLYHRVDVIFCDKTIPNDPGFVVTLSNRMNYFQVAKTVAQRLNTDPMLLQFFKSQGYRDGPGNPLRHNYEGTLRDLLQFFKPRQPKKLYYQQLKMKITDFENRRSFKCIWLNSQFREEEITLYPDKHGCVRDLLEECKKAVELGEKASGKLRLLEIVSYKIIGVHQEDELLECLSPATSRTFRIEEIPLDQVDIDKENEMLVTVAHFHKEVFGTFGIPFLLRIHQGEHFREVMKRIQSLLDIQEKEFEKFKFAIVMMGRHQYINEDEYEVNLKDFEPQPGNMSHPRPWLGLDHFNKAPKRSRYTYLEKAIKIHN

Regarding `O=C(N1CCC(O)(Cn2cnc3c(cc(Cl)n3-c3ccc([C@@H]4COC5(CCC5)CN4)cc3)c2=O)CC1)C1(C2CC2)CC1` (racemic) [Example 43, 7-(4-(5-Oxa-8-azaspiro[3.5]nonan-7-yl)phenyl)-3-((1-([1,1′-bi(cyclopropane)]-1-carbonyl)-4-hydroxypiperidin-4-yl)methyl)-6-chloro-3,7-dihydro-4H-pyrrolo[2,3-d]pyrimidin-4-one], the IC50 by setting is: under setting [1], less than 0.1 µM; under setting [2], 0.05 µM.
For the compound `Cc1cc(-n2c(Cl)cc3c(=O)n(CC4(O)CCN(C(=O)c5ccc(C(F)F)cc5)CC4)cnc32)ccc1[C@H]1CO[C@H](C)CN1` [Example 92, 6-Chloro-3-((1-(4-(difluoromethyl)benzoyl)-4-hydroxypiperidin-4-yl)methyl)-7-(3-methyl-4-((3S,6R)-6-methylmorpholin-3-yl)phenyl)-3,7-dihydro-4H-pyrrolo[2,3-d]pyrimidin-4-one], the IC50 was 0.1 to 0.25 µM under setting [1] and 0.111 µM under setting [2].
The matching figures for `CC[C@@H]1CN[C@@H](c2ccc(-n3c(Cl)cc4c(=O)n(CC5(O)CCN(C(=O)C6(C)CC6)CC5)cnc43)cc2)CO1` [Example 105, 6-Chloro-7-(4-((3S,6R)-6-ethylmorpholin-3-yl)phenyl)-3-((4-hydroxy-1-(1-methylcyclopropane-1-carbonyl)piperidin-4-yl)methyl)-3,7-dihydro-4H-pyrrolo[2,3-d]pyrimidin-4-one]: less than 0.1 µM and 0.073 µM.
Regarding `C[C@H]1CN[C@@H](c2ccc(-n3c(Cl)cc4c(=O)n(CC5(O)CCN(C(=O)c6ccc(Cl)cc6)CC5)cnc43)cc2)CO1` (single isomer, unassigned) [Example 68], the IC50 reads like this: under setting [1], 0.25 to 2 µM; under setting [2], 0.702 µM.
The matching figures for `CC1(C)COCC(c2ccc(-n3c(Cl)cc4c(=O)n(CC5(O)CCN(C(=O)C6(C)CC6)CC5)cnc43)cc2)N1` (stereo not shown) [Example 15, 6-Chloro-7-(4-(5,5-dimethylmorpholin-3-yl)phenyl)-3-((4-hydroxy-1-(1-methylcyclopropane-1-carbonyl)piperidin-4-yl)methyl)-3,7-dihydro-4H-pyrrolo[2,3-d]pyrimidin-4-one]: 0.1 to 0.25 µM and 0.169 µM.
The matching figures for `O=C(c1ccc(Cl)cc1)N1CCC(O)(Cn2cnc3c(cc(Cl)n3-c3ccc([C@H]4COCCN4)cc3)c2=O)CC1` (single isomer, unassigned) [Example 76]: less than 0.1 µM and 0.038 µM.
Consider `CC1(C(=O)N2CCC(O)(Cn3cnc4c(cc(Cl)n4-c4ccc(C5COCCN5)c(F)c4)c3=O)CC2)CC1` (stereo not shown) [Example 72, 6-Chloro-7-(3-fluoro-4-(morpholin-3-yl)phenyl)-3-((4-hydroxy-1-(1-methylcyclopropane-1-carbonyl)piperidin-4-yl)methyl)-3,7-dihydro-4H-pyrrolo[2,3-d]pyrimidin-4-one], for which the IC50 under setting [1] was 0.1 to 0.25 µM and the IC50 under setting [2] was 0.211 µM.
Taken in the same sequence, the figures for `O=C(C[C@H](c1ccccc1)C(F)(F)F)N1CCC(O)(Cn2cnc3c(cc(Cl)n3-c3ccc([C@H]4COCCN4)cc3)c2=O)CC1` (single isomer, unassigned) [Example 78] were less than 0.1 µM and 0.016 µM.
`C[C@@H]1CN[C@@H](c2ccc(-n3c(Cl)cc4c(=O)n(CC5(O)CCN(C(=O)c6ccccc6)CC5)cnc43)cc2)CO1` [Example 24, 3-((1-Benzoyl-4-hydroxypiperidin-4-yl)methyl)-6-chloro-7-(4-((3S,6R)-6-methylmorpholin-3-yl)phenyl)-3,7-dihydro-4H-pyrrolo[2,3-d]pyrimidin-4-one]: the IC50 is, setting by setting: under setting [1], 0.1 to 0.25 µM; under setting [2], 0.25 µM.
The matching figures for `C[C@H]1CN[C@H](c2ccc(-n3c(Cl)cc4c(=O)n(CC5(O)CCN(C(=O)/C=C/c6ccccc6)CC5)cnc43)cc2)CO1` [Example 63, 6-Chloro-3-((1-cinnamoyl-4-hydroxypiperidin-4-yl)methyl)-7-(4-((3R,6S)-6-methylmorpholin-3-yl)phenyl)-3,7-dihydro-4H-pyrrolo[2,3-d]pyrimidin-4-one]: 0.1 to 0.25 µM and 0.221 µM.
As to `C[C@H]1CN[C@H](c2ccc(-n3c(Cl)cc4c(=O)n(CC5(O)CCN(C(=O)C[C@H](c6ccccc6)C(F)(F)F)CC5)cnc43)cc2)CO1` [Example 7, 6-Chloro-3-((4-hydroxy-1-((R)-4,4,4-trifluoro-3-phenylbutanoyl)piperidin-4-yl)methyl)-7-(4-((3R,6S)-6-methylmorpholin-3-yl)phenyl)-3,7-dihydro-4H-pyrrolo[2,3-d]pyrimidin-4-one], the IC50 by setting is: under setting [1], less than 0.1 µM; under setting [2], 0.016 µM.
Regarding `C[C@H]1CN[C@H](c2ccc(-n3c(Cl)cc4c(=O)n(CC5(O)CCN(C(=O)C6(C)CC6)CC5)cnc43)cc2)CO1` [Example 101, 6-Chloro-3-((4-hydroxy-1-(1-methylcyclopropane-1-carbonyl)piperidin-4-yl)methyl)-7-(4-((3R,6S)-6-methylmorpholin-3-yl)phenyl)-3,7-dihydro-4H-pyrrolo[2,3-d]pyrimidin-4-one], the IC50 is less than 0.1 µM under setting [1] and 0.057 µM under setting [2].
Taken in the same sequence, the figures for `CC[C@H]1CN[C@H](c2ccc(-n3c(Cl)cc4c(=O)n(CC5(O)CCN(C(=O)c6ccc(F)cc6)CC5)cnc43)cc2)CO1` [Example 45, 6-Chloro-7-(4-((3R,6S)-6-ethylmorpholin-3-yl)phenyl)-3-((1-(4-fluorobenzoyl)-4-hydroxypiperidin-4-yl)methyl)-3,7-dihydro-4H-pyrrolo[2,3-d]pyrimidin-4-one] were 0.1 to 0.25 µM and 0.176 µM.
As for `O=C(c1ccc(Cl)cc1)N1CCC(O)(Cn2cnc3c(cc(Cl)n3-c3ccc(C4COCC5(CC5)N4)cc3)c2=O)CC1` (stereo not shown) [Example 18, 7-(4-(7-Oxa-4-azaspiro[2.5]octan-5-yl)phenyl)-6-chloro-3-((1-(4-chlorobenzoyl)-4-hydroxypiperidin-4-yl)methyl)-3,7-dihydro-4H-pyrrolo[2,3-d]pyrimidin-4-one], the IC50 runs as follows: under setting [1], 0.25 to 2 µM; under setting [2], 0.378 µM.
Consider `Cc1cc(-n2c(Cl)cc3c(=O)n(CC4(O)CCN(C(=O)c5cccc(Cl)c5)CC4)cnc32)ccc1[C@H]1CO[C@H](C)CN1` [Example 51, 6-Chloro-3-((1-(3-chlorobenzoyl)-4-hydroxypiperidin-4-yl)methyl)-7-(3-methyl-4-((3S,6R)-6-methylmorpholin-3-yl)phenyl)-3,7-dihydro-4H-pyrrolo[2,3-d]pyrimidin-4-one], for which the concentration for half-maximal inhibition (IC50) is, setting by setting: under setting [1], less than 0.1 µM; under setting [2], 0.258 µM.
Taken in the same sequence, the figures for `CN1CCOCC1c1ccc(-n2c(Cl)cc3c(=O)n(CC4(O)CCN(C(=O)C5(C)CC5)CC4)cnc32)cc1` (stereo not shown) [Example 75, 6-Chloro-3-((4-hydroxy-1-(1-methylcyclopropane-1-carbonyl)piperidin-4-yl)methyl)-7-(4-(4-methylmorpholin-3-yl)phenyl)-3,7-dihydro-4H-pyrrolo[2,3-d]pyrimidin-4-one] were 0.25 to 2 µM and 2.09 µM.
Taken in the same sequence, the figures for `C[C@@H]1COC[C@H](c2ccc(-n3c(Cl)cc4c(=O)n(CC5(O)CCN(C(=O)c6ccc(Cl)cc6)CC5)cnc43)cc2)N1` (single isomer, unassigned) [Example 27] were 0.1 to 0.25 µM and 0.194 µM.
As to `C[C@@H]1OCCN[C@H]1c1ccc(-n2c(Cl)cc3c(=O)n(CC4(O)CCN(C(=O)c5ccc(Cl)cc5)CC4)cnc32)cc1` [Example 6, 6-Chloro-3-((1-(4-chlorobenzoyl)-4-hydroxypiperidin-4-yl)methyl)-7-(4-((2S,3S)-2-methylmorpholin-3-yl)phenyl)-3,7-dihydro-4H-pyrrolo[2,3-d]pyrimidin-4-one], the IC50 reads like this: under setting [1], less than 0.1 µM; under setting [2], 0.05 µM.
The matching figures for `C[C@H]1CN[C@H](c2ccc(-n3c(Cl)cc4c(=O)n(CC5(O)CCN(C(=O)c6cccc(F)c6)CC5)cnc43)cc2)CO1` [Example 38, 6-Chloro-3-((1-(3-fluorobenzoyl)-4-hydroxypiperidin-4-yl)methyl)-7-(4-((3R,6S)-6-methylmorpholin-3-yl)phenyl)-3,7-dihydro-4H-pyrrolo[2,3-d]pyrimidin-4-one]: 0.25 to 2 µM and 0.302 µM.
The matching figures for `O=C(C[C@H](c1ccccc1)C(F)(F)F)N1CCC(O)(Cn2cnc3c(cc(Cl)n3-c3ccc([C@H]4COCCN4)c(Cl)c3)c2=O)CC1` (mixture of isomers) [Example 86, 6-Chloro-7-(3-chloro-4-((S)-morpholin-3-yl)phenyl)-3-((4-hydroxy-1-((R)-4,4,4-trifluoro-3-phenylbutanoyl)piperidin-4-yl)methyl)-3,7-dihydro-4H-pyrrolo[2,3-d]pyrimidin-4-one and 6-chloro-7-(3-chloro-4-((R)-morpholin-3-yl)phenyl)-3-((4-hydroxy-1-((R)-4,4,4-trifluoro-3-phenylbutanoyl)piperidin-4-yl)methyl)-3,7-dihydro-4H-pyrrolo[2,3-d]pyrimidin-4-one (1:1)]: 0.1 to 0.25 µM and 0.134 µM.
Taken in the same sequence, the figures for `O=C(C[C@H](c1ccccc1)C(F)(F)F)N1CCC(O)(Cn2cnc3c(cc(Cl)n3-c3ccc([C@@H]4COCCN4)cc3)c2=O)CC1` (single isomer, unassigned) [Example 81] were less than 0.1 µM and 0.015 µM.
As for `C[C@H]1CN[C@H](c2ccc(-n3c(Cl)cc4c(=O)n(CC5(O)CCN(C(=O)c6ccccc6)CC5)cnc43)cc2)CO1` [Example 20, 3-((1-Benzoyl-4-hydroxypiperidin-4-yl)methyl)-6-chloro-7-(4-((3R,6S)-6-methylmorpholin-3-yl)phenyl)-3,7-dihydro-4H-pyrrolo[2,3-d]pyrimidin-4-one], the half-maximal inhibitory concentration (IC50) reads like this: under setting [1], 0.25 to 2 µM; under setting [2], 0.379 µM.
Take `O=C(c1ccc(Cl)cc1)N1CCC(O)(Cn2cnc3c(cc(Cl)n3-c3ccc(C4COC5CCCCC5N4)cc3)c2=O)CC1` (stereo not shown) [Example 53, 6-Chloro-3-((1-(4-chlorobenzoyl)-4-hydroxypiperidin-4-yl)methyl)-7-(4-(octahydro-2H-benzo[b][1,4]oxazin-3-yl)phenyl)-3,7-dihydro-4H-pyrrolo[2,3-d]pyrimidin-4-one]: the IC50 by setting is: under setting [1], 0.25 to 2 µM; under setting [2], 0.264 µM.
